pIC50: −log10 of the molar value. Calls of active or inactive are those of the source. The rule behind the calls is not given here.
Assays:
[1] = system: GTPase KRas (Homo sapiens), P01116 [G12C]; experiment: Covalent binding affinity to recombinant human KRAS G12C mutant (1 to 169 residues) expressed in Escherichia coli BL21 (DE3) gold assessed as protein labelling at 1 uM incubated for 2 hrs by In-gel fluorescence analysis
[2] = system: NCI-H358; experiment: Antiproliferative activity against human NCI-H358 cells harboring KRAS p.G12C mutant assessed as inhibition of cell growth incubated for 72 hrs by cell count reagent SF based assay; type: functional; details: NCI-H358, 72 h
[3] = Antiproliferative activity against human gefitinib resistant NCI-H1975 cells harboring EGFR L858R/T790M double mutant assessed as inhibition of cell proliferation incubated for 72 hrs by cell count reagent SF based assay; type: functional
[4] = system: GTPase KRas (Homo sapiens), P01116 [G12C]; experiment: Binding affinity to KRAS G12C mutant in human NCI-H358 cells assessed as protein labelling at 1 uM incubated for 1 hrs by In-gel fluorescence analysis; type: cell-based
[5] = system: GTPase KRas (Homo sapiens), P01116 [G12C]; experiment: Inhibition of KRAS G12C mutant in human NCI-H358 cells assessed as reduction in ERK1/2 phosphorylation at T185/Y187 residues upto 10 uM incubated for 4 hrs by Western blot analysis; type: cell-based
[6] = system: GTPase KRas (Homo sapiens), P01116 [G12C]; experiment: Inhibition of KRAS G12C mutant in human NCI-H358 cells assessed as reduction in ERK1/2 phosphorylation at T185/Y187 residues at 1 uM incubated for 4 hrs by Western blot analysis; type: cell-based
[7] = system: GTPase KRas (Homo sapiens), P01116 [G12C]; experiment: Inhibition of KRAS G12C mutant in human NCI-H358 cells assessed as reduction in ERK1/2 phosphorylation at T185/Y187 residues at 0.1 uM incubated for 4 hrs by Western blot analysis relative to control; type: cell-based
[8] = Metabolic stability in human liver microsomes assessed as clearance at 1 uM incubated for 30 mins by LC-MS/MS analysis; type: ADME, Microsome; details: read-out: CLH
[9] = system: GTPase KRas (Homo sapiens), P01116 [G12C]; experiment: Covalent inhibition of KRAS G12C mutant in human NCI-H358 cells assessed as reduction in protein labelling by probe at 1 uM preincubated for 3 hrs and further incubated with 2-((S)-4-(7-(8-chloronaphthalen-1-yl)-2-(((S)-1-(pent-4-yn-1-yl)pyrrolidin-2-yl)methoxy)-5,6,7,8-tetrahydropyrido[3,4-d]pyrimi …; type: cell-based; details: time 4.0 hrs
[10] = system: GTPase KRas (Homo sapiens), P01116 [G12C]; experiment: Inhibition of KRAS G12C mutant in human MIA PaCa-2 cells assessed as reduction in ERK1/2 phosphorylation at T185/Y187 residues at 0.001 to 1 uM incubated for 4 hrs by Western blot analysis; type: cell-based; details: dose 0.001-1 µM
[11] = system: MIA PaCa-2; experiment: Antiproliferative activity against human MIA PaCa-2 cells assessed as inhibition of cell growth incubated for 72 hrs by cell count reagent SF based assay; type: functional; details: MIA PaCa-2, 72 h
[12] = system: GTPase KRas (Homo sapiens), P01116 [G12C]; experiment: Inhibition of KRAS G12C mutant in human NCI-H358 cells assessed as reduction in ERK1/2 phosphorylation at T185/Y187 residues at 0.5 uM incubated for 0.5 to 4 hrs by Western blot analysis; type: cell-based; details: time 0.5-4 hrs
[13] = system: GTPase KRas (Homo sapiens), P01116 [G12C]; experiment: Inhibition of KRAS G12C mutant in human MIA PaCa-2 cells assessed as reduction in ERK1/2 phosphorylation at T185/Y187 residues at 0.5 uM incubated for 0.5 to 4 hrs by Western blot analysis; type: cell-based; details: time 0.5-4 hrs
[14] = system: GTPase KRas (Homo sapiens), P01116 [G12C]; experiment: Inhibition of KRAS G12C mutant in human NCI-H358 cells assessed as reduction in ERK1/2 phosphorylation at T185/Y187 residues at 0.001 to 1 uM incubated for 4 hrs by Western blot analysis; type: cell-based; details: dose 0.001-1 µM
[15] = system: GTPase KRas (Homo sapiens), P01116 [G12C]; experiment: Irreversible inhibition of KRAS G12C mutant in human NCI-H358 cells assessed as reduction in ERK1/2 phosphorylation at T185/Y187 residues at 0.001 to 1 uM incubated for 4 hrs followed by washout and further incubated with fresh medium for 4 hrs by Western blot analysis; type: cell-based; details: dose 0.001-1 µM
[16] = Glutathione reactivity in potassium phosphate buffer at pH 7.2 assessed as half life at 1 mM by UHPLC analysis; type: physicochemical
[17] = biological target: Epidermal growth factor receptor (Homo sapiens) (UniProt P00533); experiment: Inhibition of EGFR autophosphorylation in human NCI-H1975 cells assessed as reduction in ERK1/2 phosphorylation at T185/Y187 residue at 0.01 to 1 uM incubated for 4 hrs by Western blot analysis; type: cell-based; details: dose 0.01-1 µM
[18] = biological target: Epidermal growth factor receptor (Homo sapiens) (UniProt P00533); experiment: Inhibition of EGFR autophosphorylation at Y1068 residue in human NCI-H1975 cells at 0.01 to 1 uM incubated for 4 hrs by Western blot analysis; type: cell-based; details: dose 0.01-1 µM

In the case of `C#CCCCN1CCC[C@H]1COc1nc2c(c(N3CCN(C(=O)C(Cl)Cl)[C@@H](CC#N)C3)n1)CCN(c1cccc3ccc(F)c(Cl)c13)C2`, the Activity [1] was “Active” and the pIC50 [2] was 7.16.

`O=C(Nc1cc2c(Nc3ccc(F)c(Cl)c3)ncnc2cc1OCCCN1CCOCC1)[C@H]1CCCN1C(=O)C(F)Cl` (some centres undefined) gave a pIC50 [3] of 6.55.

For `C#CCCCN1CCC[C@H]1COc1nc2c(c(N3CCN(C(=O)C(=C)F)[C@@H](CC#N)C3)n1)CCN(c1cccc3cccc(Cl)c13)C2`, the Activity [4] was “Active”.

`CN1CCC[C@H]1COc1nc2c(c(N3CCN(C(=O)C(F)Cl)[C@@H](CC#N)C3)n1)CCN(c1cccc3cccc(Cl)c13)C2` (some centres undefined) showed a pIC50 [2] of 7.78.

In the case of `CC(=O)N1CCN(c2nc(OC[C@@H]3CCCN3C)nc3c2CCN(c2cccc4cccc(Cl)c24)C3)C[C@@H]1CC#N` (racemic), the inhibition [5] was “inactive” and the pIC50 [2] was under 5.00.

With `CN1CCC[C@H]1COc1nc2c(c(N3CCN(C(=O)C(Cl)Cl)[C@@H](CC#N)C3)n1)CCN(c1cccc3cccc(Cl)c13)C2` the inhibition [6] was “Active”, the inhibition [7] was 100% and the microsomal CLint at 1 µM [8] was 226 µL/min/mg. The pIC50 [2] was 7.58.

In the case of `CN1CCC[C@H]1COc1nc2c(c(N3CCN(C(=O)C(Cl)Cl)[C@@H](CC#N)C3)n1)CCN(c1cccc3ccc(F)c(Cl)c13)C2`, the inhibition [9] was “Active”, the inhibition [10] was “Active” and the pIC50 [11] was 8.25. The inhibition [12] was “Active”, the inhibition [13] was “Active” and the microsomal CLint at 1 µM [8] was 110 µL/min/mg. For the same compound, the inhibition [14] was “Active”, the inhibition [15] was “Active” and the pIC50 [2] was 8.00.

`C=C(F)C(=O)N1CCN(c2nc(OC[C@@H]3CCCN3C)nc3c2CCN(c2cccc4cccc(Cl)c24)C3)C[C@@H]1CC#N` [ADAGRASIB] showed a pIC50 [11] of 8.41, a microsomal CLint at 1 µM [8] of 215 µL/min/mg and a pIC50 [2] of 8.04.

With `C#CCCCN1CCC[C@H]1COc1nc2c(c(N3CCN(C(=O)[C@@H](F)Cl)[C@@H](CC#N)C3)n1)CCN(c1cccc3cccc(Cl)c13)C2` the Activity [1] was “Active” and the pIC50 [2] was 6.44.

Compound `C#CCOCCOCCOc1cccc(N2CCN(C(=O)CF)CC2)c1` has a half-life at 1000 µM [16] of over 167 h.

For `CN1CCC[C@H]1COc1nc2c(c(N3CCN(C(=O)C(F)Cl)CC3)n1)CCN(c1cccc3cccc(Cl)c13)C2` (some centres undefined), the pIC50 [2] was 5.32.

For `CN1CCC[C@H]1COc1nc2c(c(N3CCN(C(=O)[C@H](F)Cl)[C@@H](CC#N)C3)n1)CCN(c1cccc3cccc(Cl)c13)C2`, the pIC50 [2] was 6.79.

For `CN1CCC[C@H]1COc1nc2c(c(N3CCN(C(=O)[C@@H](F)Cl)[C@@H](CC#N)C3)n1)CCN(c1cccc3cccc(Cl)c13)C2`, the inhibition [6] was “Active”, the inhibition [7] was 100% and the microsomal CLint at 1 µM [8] was 272 µL/min/mg. It also gave a pIC50 [2] of 7.91.

`C#CCOCCOCCOc1cccc(N2CCN(C(=O)C(F)F)CC2)c1` gave a half-life at 1000 µM [16] of 129 h.

For `O=C(Nc1cc2c(Nc3ccc(F)c(Cl)c3)ncnc2cc1OCCCN1CCOCC1)[C@H]1CCCN1C(=O)C(Cl)Cl`, the inhibition [17] was “Active”, the pIC50 [3] was 6.31 and the inhibition [18] was “Active”.

For `CN1CCC[C@H]1COc1nc2c(c(N3CCN(C(=O)CCl)[C@@H](CC#N)C3)n1)CCN(c1cccc3cccc(Cl)c13)C2`, the pIC50 [2] was 5.86.

Compound `C#CCOCCOCCOc1cccc(N2CCN(C(=O)C(C)(F)Br)CC2)c1` (centres undefined) has a half-life at 1000 µM [16] of over 167 h.

Work on `C#CCOCCOCCOc1cccc(N2CCN(C(=O)C(F)(F)Br)CC2)c1` yielded a half-life at 1000 µM [16] of 33.4 h.
